In patent US4929635A, “New derivatives of 4-vinyl benzoic acid, process for their preparation and their uses in therapeutics and as ligands” (Laboratoires Chauvin-Blache, priority 1984, dated 1990):

The compounds below were run against T1, cytosolic receptor of retinoic acid (C.R.A.B.P.) of rat testicles (Rattus norvegicus, UniProt P62966) (assay: Affinity for the cytosolic receptor of retinoic acid (C.R.A.B.P.) of rat testicles: inhibition of specific linking of tritiated retinoic acid). Details: ligand 4 μM; tritiated retinoic acid 20 nM; rat testicle cytosol 2 mg/ml; 16 h at 4° C., pH 7.4; unmarked retinoic acid = 100% inhibition.
T1 construct: to obtain the cytosol; from tissue; host or cells: rat testicles, 105000×g cytosol
T1 sequence (P62966 whole entry): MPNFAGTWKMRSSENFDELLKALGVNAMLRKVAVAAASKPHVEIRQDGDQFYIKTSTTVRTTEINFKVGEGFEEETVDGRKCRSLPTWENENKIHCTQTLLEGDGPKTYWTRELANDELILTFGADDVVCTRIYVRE
Type: binding
Experimental: Affinity for the cytosolic receptor of retinoic acid (C.R.A.B.P.) of rat testicles
The affinity of the compounds of the formula I for the C.R.A.B.P. receptor is determined by measurement of the inhibition of the specific linking of tritiated retinoic acid (*AR) by the various compounds according to the method of ONG and CHYTIL (J. Biol. Chem., 1975, 250, 6113) modified:
The rat testicles thawed to 4° C. are placed in Tris-HCl 50 mM, DTE 2 mM buffer, pH 7.4, then ground in a Potter Teflon/glass grinder (three times at 800 rpm). The ground product is centrifuged at 4000×g for 10 min at 4° C.
The supernatant liquor is then centrifuged for 60 min at 105000×g at 4° C. to obtain the cytosol. The final protein concentration of the cytosol is adjusted to 2 mg/ml.
200 μl of cytosol are incubated for 16 h at 4° C. in the presence of tritiated retinoic acid 20 nM (specific activity: 30 Ci/mmole), in the presence of the ligands to be tested at the concentration of 4 μM.
The incubations are followed by treatment with charcoal-dextran (1%-0.0025%) for 30 min at 4° C. The bound radioactivity is determined by counting in liquid scintillation.

inhibition at 4 µM | SMILES
18.9% | C/C(=C\c1ccc(C(=O)O)cc1)c1ccccc1 [Compound 1]
68.5% | C/C(=C\c1ccc(C(=O)O)cc1)c1ccc(C(C)C)cc1 [Compound 3, (E)-4-[2-(4-isopropylphenyl)propenyl]benzoic acid]
18.5% | C/C(=C\c1ccc(C(=O)O)cc1)c1cccs1 [Compound 9]
27.5% | C/C(=C\c1ccc(C(=O)N2CCN(C)CC2)cc1)c1ccc(C(C)C)cc1 [Compound 11]
67.5% | C/C(=C\c1ccc(C(=O)O)cc1)c1cccc(C(C)C)c1 [Compound 12]
72.5% | C/C(=C\c1ccc(C(=O)O)cc1)c1cc(C(C)C)cs1 [Compound 13]
75% | C/C(=C\c1ccc(C(=O)O)cc1)c1ccc(C(C)C)s1 [Compound 14]
